Reference: ChEMBL document CHEMBL4364346, “Structure optimization of a new class of PPARγ antagonists” (Bioorg Med Chem, 2019)
≈ marks a conversion by molar mass, not a printed value.

Key:
[1] = target: T1, Peroxisome proliferator-activated receptor gamma (Homo sapiens, UniProt P37231); test: Antagonist actvity in pFA-GAL4-DBD fused PPARgamma LBD (unknown origin) transfected in HEK293T cells assessed as inhibition of rosiglitazone-induced PPARgamma transactivation incubated for 24 hrs by luciferase reporter gene assay; assay type: cell-based
T1 sequence (P37231 whole entry): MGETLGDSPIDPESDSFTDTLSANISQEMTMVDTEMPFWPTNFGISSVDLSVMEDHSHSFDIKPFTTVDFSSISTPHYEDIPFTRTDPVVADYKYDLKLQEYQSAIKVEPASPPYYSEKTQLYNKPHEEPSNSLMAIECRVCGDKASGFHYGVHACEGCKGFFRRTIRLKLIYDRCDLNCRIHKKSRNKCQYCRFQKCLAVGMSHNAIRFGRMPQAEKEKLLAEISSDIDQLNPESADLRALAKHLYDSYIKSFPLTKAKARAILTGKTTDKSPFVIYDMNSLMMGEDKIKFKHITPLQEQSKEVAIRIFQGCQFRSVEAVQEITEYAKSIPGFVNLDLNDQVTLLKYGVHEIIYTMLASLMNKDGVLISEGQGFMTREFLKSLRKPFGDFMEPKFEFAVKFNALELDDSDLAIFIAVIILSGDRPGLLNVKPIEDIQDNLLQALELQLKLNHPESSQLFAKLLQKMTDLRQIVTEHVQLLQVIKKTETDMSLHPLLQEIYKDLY

[2] = Solubility of compound in PBS buffer pH 7.4 with 1% DMSO measured after 1 and 24 hrs; assay type: physicochemical; details: PBS buffer with 1% DMSO

SMILES	IC50 ([1]; read-out: IC50) [µM]	other results
COc1cc(C(F)(F)F)nc2ccc(COc3ccc(OCc4ccc(F)cc4)c(/C=C(\F)C(=O)O)c3)cc12		IC50 [1]: Not Active
CCC/C(=C\c1cc(OCc2ccc3c(ccc[n+]3[O-])c2)ccc1OCc1ccc(F)cc1)C(=O)O	6.1	
CCC/C(=C\c1cc(OC)ccc1OCc1ccc2nc(C(F)(F)F)cc(OC)c2c1)C(=O)O		IC50 [1]: Not Active
CCC/C(=C\c1cc(OCc2ccc3nc(C(F)(F)F)cc(OC)c3c2)ccc1NC(=O)c1ccc(F)cc1)C(=O)O	9.5	
CCC/C(=C\c1cc(OCc2ccc3nc(C(F)(F)F)cc(OC)c3c2)ccc1OCc1ccncc1)C(=O)O	4.7	
CCCC/C(=C\c1cc(OCc2cn(Cc3ccc(C(=O)O)cc3)nn2)ccc1OCc1ccc(C(F)(F)F)cc1)C(=O)O		IC50 [1]: Not Active
CCCCC(Cc1cc(OCc2ccc3nc(C(F)(F)F)cc(OC)c3c2)ccc1OCc1ccc(C(F)(F)F)cc1)C(=O)O (configuration not stated)		IC50 [1]: Not Active
CCCn1c(C(=O)O)cc2c(OC)ccc(OCc3ccc4nc(C(F)(F)F)cc(OC)c4c3)c21	3.9	
CCC/C(=C\c1cc(OCc2ccc3cccnc3c2)ccc1OCc1ccc(F)cc1)C(=O)O	23.9	
CCC/C(=C\c1cc(OCc2ccc3ncccc3c2)ccc1OCC1CCN(C)CC1)C(=O)O	15.1	
CCC/C(=C\c1cc(OCc2ccc3nc(C(F)(F)F)cc(OC)c3c2)ccc1OCC1CCNCC1)C(=O)O		IC50 [1]: Not Active
CCC/C(=C\c1cc(OCc2ccc3ncccc3c2)ccc1OCc1ccc(F)cc1)C(=O)O	5	
CCC/C(=C\c1cc(OCc2ccc3nc(C(F)(F)F)cc(OC)c3c2)ccc1OCCN1CCNCC1)C(=O)O	9.6	
CCCC/C(=C\c1cc(OCc2ccc3nc(C(F)(F)F)cc(OC)c3c2)ccc1OCc1ccc(C(F)(F)F)cc1)C(=O)O		solubility at 24 h [2]: 50 to 75 µM (≈ 31.7 to 47.5 µg/mL)
CC/C(=C\c1cc(OCc2ccc3nc(C(F)(F)F)cc(OC)c3c2)ccc1OCc1ccc(F)cc1)C(=O)O	5.7	
CCC/C(=C\c1cc(OCc2ccc3nc(C(F)(F)F)cc(OC)c3c2)ccc1OCc1ccc(F)cc1)C(=O)O	3.2	

SMILES	IC50 ([1]; read-out: IC50) [µM]	other results
COc1cc(C(F)(F)F)nc2ccc(COc3ccc(OCc4ccc(F)cc4)c(/C=C(\C)C(=O)O)c3)cc12	9.4	
CCC/C(=C\c1cc(OCc2ccc3nc(C)ccc3c2)ccc1OCc1ccc(F)cc1)C(=O)O	4.2	
CCC/C(=C\c1cc(OCc2ccc3nc(C(F)(F)F)cc(OC)c3c2)ccc1OCc1cccc(F)c1)C(=O)O	3.9	
CCC/C(=C\c1cc(OCc2ccc(N(C)C)cc2)ccc1OCc1ccc(F)cc1)C(=O)O		IC50 [1]: Not Active
COc1cc(C(F)(F)F)nc2ccc(COc3ccc(OCc4ccc(F)cc4)c(/C=C(\CC4CC4)C(=O)O)c3)cc12	8.4	
CCC/C(=C\c1cc(OCc2ccc3[nH]c(=O)ccc3c2)ccc1OCc1ccc(F)cc1)C(=O)O	6.1	
CCCC/C(=C\c1cc(OCc2ccc3nc(C(F)(F)F)cc(OC)c3c2)ccc1OCc1ccc(OC(F)(F)F)cc1)C(=O)O	1.9	
CCC/C(=C\c1cc(OCc2ccc3ccccc3n2)ccc1OCc1ccc(F)cc1)C(=O)O	13.1	
COc1cc(C(F)(F)F)nc2ccc(COc3ccc(OCc4ccc(F)cc4)c(/C=C/C(=O)O)c3)cc12	11	
CCCC/C(=C\c1cc(OCc2ccc3nc(C(F)(F)F)cc(OC)c3c2)ccc1OCc1ccc(F)cc1)C(=O)O	2.3	
CCC/C(=C\c1cc(OCc2ccc3ccccc3c2)ccc1OCc1ccc(F)cc1)C(=O)O	15.8	
CCCC/C(=C\c1cc(OCc2ccc3nc(C(F)(F)F)cc(OC)c3c2)ccc1OCc1ccc(OC(F)F)cc1)C(=O)O	2.6	
CCC/C(=C\c1cc(OCc2ccc3nc(C(F)(F)F)cc(OC)c3c2)ccc1OCc1ccccc1)C(=O)O	7.2	
COc1cc(C(F)(F)F)nc2ccc(COc3ccc(OCC4CCN(C)CC4)c(/C=C(\CCC4CC4)C(=O)O)c3)cc12	7.5	
CCC/C(=C\c1cc(OCc2ccc3nc(C(F)(F)F)cc(OC)c3c2)ccc1OCc1ccccc1F)C(=O)O	3.5	
CCC/C(=C\c1cc(OCc2ccc3[nH]ccc3c2)ccc1OCc1ccc(F)cc1)C(=O)O		IC50 [1]: Not Active
